One test deals with S. aureus (ATCC 25923). The test is classed as cell-based, Staphylococcus aureus. The conditions noted are these: ATCC 25923, 1 h.
The next test has as its system E. coli ATCC 25922. It counts as cell-based, Escherichia coli. The note with it: ATCC 25922, 18 h. In short, it runs like this:
(§1)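 E. coli ATCC 25922 at 10^6 CFU/ml in MH broth with physiological divalent and monovalent salts was exposed to serial peptide dilutions, 18 h shaking at 37 °C, and MIC read. Variants: peptides preheated 1 h at 4, 60 or 90 °C, or assay diluent with 10% fetal bovine serum, 0.4% BSA, 0.02% acetic acid.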

A further test has as its system E. coli (ATCC 25922). It counts as cell-based, Escherichia coli. The note with it: ATCC 25922, 1 h. In short, it runs like this: as §1
The subject of test [1] is Sporothrix schenckii (Patient isolates). Put plainly: microbe, parasite or virus in culture. The test is classed as cell-based. The conditions noted are these: 48 h; read-out: Minimum inhibitory concentration (MIC).
In test [2] the test system is BALB/c mice challenged with lethal dose of LPS. Put plainly: Anti-LPS survival assay. It counts as in vivo, mouse. The note with it: LPS 15 mgKg−1 i.p. plus peptide single dose 5 mgKg−1, 7 days, five mice per group, LPS-only mice all died within 24 h. Here is the method:
For survival assay, mice were challenged intraperitoneally with LPS at a lethal dose of 15 mgKg^−1 E. coli 0111:B4[5]. Control mice were injected with an equal volume of PBS. G13P-Chr-1 at a single dose of 5 mgKg^−1 was injected in the mice groups that were already administered with 15 mgKg^−1 of LPS. Each group contained five mice. The mortality of mice was monitored up to 7 days and weight change was monitored every day. The peptide G13P-Chr-1 only was also injected in two groups of mice at 5 mgKg^−1 and 10 mgKg^−1 to check any mortality in mice by peptide only treatment.

Test [3] concerns TNF-α in serum of BALB/c mice injected with E. coli ATCC 25922. Briefly: In vivo TNF-α production after E. coli infection. The note with it: BALB/c mice injected with mid-logarithmic phase E. coli ATCC 25922; two hours post infection; ELISA; versus untreated group. A general note: ELISA stands for enzyme-linked immunosorbent assay.
Experimental: Serum was isolated from the blood obtained by bleeding the mice retro-orbitally two hours post infection and ELISA was performed to determine the amount of TNF-α produced in the untreated group and the peptide-treated group.

Molecules are shown by their SMILES. Values after ≈ are worked out from the molar mass of the structure shown. Residues, ends and D or L forms follow the SMILES beside them.

In the case of `CC[C@H](C)[C@H](NC(=O)[C@H](C)NC(=O)[C@H](CCCCN)NC(=O)[C@@H]1CCCN1C(=O)[C@H](C)NC(=O)[C@H](Cc1c[nH]cn1)NC(=O)[C@@H](NC(=O)[C@H](C)NC(=O)CNC(=O)[C@H](CCCCN)NC(=O)[C@@H](NC(=O)[C@H](CC(C)C)NC(=O)[C@H](Cc1c[nH]c2ccccc12)NC(=O)CNC(=O)[C@H](Cc1ccccc1)NC(=O)[C@@H](N)Cc1ccccc1)[C@@H](C)CC)[C@@H](C)CC)C(=O)N[C@@H](Cc1c[nH]cn1)C(=O)NCC(=O)N[C@@H](CC(C)C)C(=O)N[C@H](C(=O)N[C@@H](Cc1c[nH]cn1)C(=O)N[C@@H](CCCNC(=N)N)C(=O)N[C@@H](CCCNC(=N)N)C(=O)N[C@@H](CCCNC(=N)N)C(=O)N[C@@H](Cc1c[nH]cn1)C(N)=O)[C@@H](C)CC` [Peptide G13P-Chr-1] (H-FFGWLIKGAIHAPKAIHGLIHRRRH-NH2), in the test on S. aureus (ATCC 25923), the “Antibacterial activity (MIC) after incubating peptide at 4 °C” value came out at 3 µM, the “Antibacterial activity (MIC) after incubating peptide at 60 °C” value is 13 µM and the “Antibacterial activity (MIC) after incubating peptide at 90 °C” value was 17.3 µM. Besides, in the test with E. coli ATCC 25922, the “Antibacterial activity (MIC) in the presence of 10% FBS” value is 8.6 µM, the “Antibacterial activity (MIC) in the presence of FeCl3” value is 4.1 µM, the “Antibacterial activity (MIC) in the presence of KCl” value is 4.3 µM and the “Antibacterial activity (MIC) in the presence of MgCl2” value was 4.3 µM. In the test on E. coli ATCC 25922, the “Antibacterial activity (MIC) in the presence of NH4Cl” value was determined as 2.0 µM and the “Antibacterial activity (MIC) in the presence of NaCl” value came out at 8.6 µM. For the same compound, in the test with E. coli (ATCC 25922), the “Antibacterial activity (MIC) after incubating peptide at 4 °C” value is 5 µM, the “Antibacterial activity (MIC) after incubating peptide at 60 °C” value stood at 8.6 µM and the “Antibacterial activity (MIC) after incubating peptide at 90 °C” value amounted to 12.3 µM. Further, the MIC in test [1] stood at 27.2 µM (≈ 79.7 µg/mL). Also, the survival of mice in test [2] is on record as 40%. Besides, the “TNF-α production in serum” value in test [3] is reported as “significant reduction”.
